The source of these data is patent US20120094998A1, “Oligomer-Protein Tyrosine Kinase Inhibitor Conjugates” (Nektar Therapeutics, priority 2009, published 2012).

Like-named read-outs stand apart in the source and are kept apart here.

Type in all cases: biochemical
One assay deals with T1, TSSK2 (Homo sapiens, UniProt Q96PF2).
T1 sequence (Q96PF2 1-358): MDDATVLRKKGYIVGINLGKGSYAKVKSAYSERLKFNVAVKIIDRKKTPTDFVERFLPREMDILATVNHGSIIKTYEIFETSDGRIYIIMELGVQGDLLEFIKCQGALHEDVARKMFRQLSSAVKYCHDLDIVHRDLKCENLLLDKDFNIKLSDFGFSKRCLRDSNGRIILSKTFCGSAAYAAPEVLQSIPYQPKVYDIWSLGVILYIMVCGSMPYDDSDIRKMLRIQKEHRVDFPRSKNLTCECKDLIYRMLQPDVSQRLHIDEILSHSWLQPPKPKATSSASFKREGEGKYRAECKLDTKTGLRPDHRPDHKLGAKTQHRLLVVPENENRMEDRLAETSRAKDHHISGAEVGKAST
In words: Activity against various protein tyrosine kinases: TSSK2. Particulars: for inhibition at 0.01 µM: 10 nM. The protocol:
(§1) Using techniques know those of ordinary skill in the art, compounds were tested for activity against various protein tyrosine kinases.

A further assay has as its target AKT1 (Homo sapiens, UniProt P31749). In words: Activity against various protein tyrosine kinases: AKT1. Particulars: for inhibition at 0.01 µM: 10 nM. The protocol:
as §1

The next assay has as its target cKIT (Homo sapiens, UniProt P10721). The experiment in a line: Activity against various protein tyrosine kinases: CKIT. Also noted: purchased MILLIPORE 14-559. Particulars: for inhibition at 0.01 µM: 10 nM. The protocol: as §1
The target in a further assay is Fer (Homo sapiens, UniProt P16591). The experiment in a line: Activity against various protein tyrosine kinases: Fer. Conditions: for inhibition at 0.01 µM: 10 nM. The protocol:
as §1

A further assay concerns the target CaMKII (gamma) (Homo sapiens, UniProt Q13555). In words: Activity against various protein tyrosine kinases: CaMKII (gamma). Conditions: for inhibition at 0.01 µM: 10 nM. The protocol:
as §1

In a further assay the target is T2, TSSK1 (Homo sapiens, UniProt Q9BXA7).
T2 sequence (Q9BXA7 1-367): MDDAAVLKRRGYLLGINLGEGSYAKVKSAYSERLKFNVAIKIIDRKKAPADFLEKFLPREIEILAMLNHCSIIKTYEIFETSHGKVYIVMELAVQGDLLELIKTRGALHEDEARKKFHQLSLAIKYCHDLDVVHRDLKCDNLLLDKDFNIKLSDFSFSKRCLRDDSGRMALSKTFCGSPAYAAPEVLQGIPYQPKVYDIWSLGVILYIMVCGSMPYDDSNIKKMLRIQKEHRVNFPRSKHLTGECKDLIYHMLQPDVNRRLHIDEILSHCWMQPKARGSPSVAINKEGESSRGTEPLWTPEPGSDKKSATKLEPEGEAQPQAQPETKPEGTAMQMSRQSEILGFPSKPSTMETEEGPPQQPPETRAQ
The experiment in a line: Activity against various protein tyrosine kinases: TSSK1. Conditions: for inhibition at 0.01 µM: 10 nM. The protocol: as §1

The target of a further assay is T3, CHK1 (Homo sapiens, UniProt O14757).
T3 sequence (O14757 1-476): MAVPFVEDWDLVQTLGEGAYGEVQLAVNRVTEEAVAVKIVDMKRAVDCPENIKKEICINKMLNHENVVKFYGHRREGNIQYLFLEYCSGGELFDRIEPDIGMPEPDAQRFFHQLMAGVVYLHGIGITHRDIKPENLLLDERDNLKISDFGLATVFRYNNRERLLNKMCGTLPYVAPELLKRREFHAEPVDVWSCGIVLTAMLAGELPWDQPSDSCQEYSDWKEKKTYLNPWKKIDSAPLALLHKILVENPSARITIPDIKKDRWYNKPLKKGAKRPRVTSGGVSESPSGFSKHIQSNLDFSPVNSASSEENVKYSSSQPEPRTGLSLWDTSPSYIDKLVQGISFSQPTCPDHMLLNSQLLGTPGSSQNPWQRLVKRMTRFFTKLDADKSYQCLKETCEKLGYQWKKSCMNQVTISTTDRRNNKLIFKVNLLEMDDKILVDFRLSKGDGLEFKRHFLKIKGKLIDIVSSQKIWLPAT
The experiment in a line: Activity against various protein tyrosine kinases: CHK1. Conditions: for inhibition at 0.01 µM: 10 nM. The protocol:
as §1

A further assay concerns the target ABL (T315I) (Homo sapiens, UniProt P00519, T315I). In words: Activity against various protein tyrosine kinases: ABL (T315I). Conditions: for inhibition at 0.01 µM: read-out: % Inhibition at 10 nM; for inhibition at 1 µM: read-out: % Inhibition at 1 μM. The protocol: as §1
Another assay concerns the target T4, Flt3 (D835Y) (Homo sapiens, UniProt P36888, D835Y).
T4 sequence (P36888 27-993 D835Y): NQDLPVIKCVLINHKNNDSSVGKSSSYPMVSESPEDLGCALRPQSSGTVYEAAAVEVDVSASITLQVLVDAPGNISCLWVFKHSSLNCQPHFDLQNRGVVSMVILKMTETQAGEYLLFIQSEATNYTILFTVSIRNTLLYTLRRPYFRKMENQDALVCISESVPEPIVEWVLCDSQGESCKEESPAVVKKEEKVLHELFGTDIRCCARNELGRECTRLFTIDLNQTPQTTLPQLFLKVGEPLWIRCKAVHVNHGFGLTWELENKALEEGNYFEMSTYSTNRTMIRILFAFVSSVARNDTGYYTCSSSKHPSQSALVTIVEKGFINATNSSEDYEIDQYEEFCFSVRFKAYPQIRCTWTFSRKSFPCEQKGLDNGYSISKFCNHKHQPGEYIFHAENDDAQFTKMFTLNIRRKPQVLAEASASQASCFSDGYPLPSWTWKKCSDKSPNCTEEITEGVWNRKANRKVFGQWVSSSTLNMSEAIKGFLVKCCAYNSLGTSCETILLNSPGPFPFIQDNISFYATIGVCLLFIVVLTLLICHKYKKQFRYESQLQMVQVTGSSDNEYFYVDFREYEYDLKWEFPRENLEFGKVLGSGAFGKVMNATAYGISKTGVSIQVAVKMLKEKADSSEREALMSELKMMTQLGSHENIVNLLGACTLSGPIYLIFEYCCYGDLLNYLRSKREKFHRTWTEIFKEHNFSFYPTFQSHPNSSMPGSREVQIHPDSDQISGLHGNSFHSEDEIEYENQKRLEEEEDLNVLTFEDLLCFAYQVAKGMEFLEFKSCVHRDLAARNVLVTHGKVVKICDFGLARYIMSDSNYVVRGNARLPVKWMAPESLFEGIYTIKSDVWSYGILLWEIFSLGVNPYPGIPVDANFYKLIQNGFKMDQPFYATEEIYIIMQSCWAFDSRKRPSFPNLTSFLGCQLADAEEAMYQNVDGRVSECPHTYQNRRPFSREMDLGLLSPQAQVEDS
In words: Activity against various protein tyrosine kinases: Flt3 (D835Y). Particulars: for inhibition at 0.01 µM: 10 nM. The protocol: as §1

Another assay deals with EGFR (Homo sapiens, UniProt P00533). In words: Activity against various protein tyrosine kinases: EGFR. Particulars: for inhibition at 0.01 µM: 10 nM. The protocol:
as §1

In a further assay the target is RSK1 (Homo sapiens, UniProt Q15418). The experiment in a line: Activity against various protein tyrosine kinases: RSK1. Particulars: for inhibition at 0.01 µM: 10 nM. The protocol: as §1
RSK1, sequence (Q15418 whole entry, species assumed): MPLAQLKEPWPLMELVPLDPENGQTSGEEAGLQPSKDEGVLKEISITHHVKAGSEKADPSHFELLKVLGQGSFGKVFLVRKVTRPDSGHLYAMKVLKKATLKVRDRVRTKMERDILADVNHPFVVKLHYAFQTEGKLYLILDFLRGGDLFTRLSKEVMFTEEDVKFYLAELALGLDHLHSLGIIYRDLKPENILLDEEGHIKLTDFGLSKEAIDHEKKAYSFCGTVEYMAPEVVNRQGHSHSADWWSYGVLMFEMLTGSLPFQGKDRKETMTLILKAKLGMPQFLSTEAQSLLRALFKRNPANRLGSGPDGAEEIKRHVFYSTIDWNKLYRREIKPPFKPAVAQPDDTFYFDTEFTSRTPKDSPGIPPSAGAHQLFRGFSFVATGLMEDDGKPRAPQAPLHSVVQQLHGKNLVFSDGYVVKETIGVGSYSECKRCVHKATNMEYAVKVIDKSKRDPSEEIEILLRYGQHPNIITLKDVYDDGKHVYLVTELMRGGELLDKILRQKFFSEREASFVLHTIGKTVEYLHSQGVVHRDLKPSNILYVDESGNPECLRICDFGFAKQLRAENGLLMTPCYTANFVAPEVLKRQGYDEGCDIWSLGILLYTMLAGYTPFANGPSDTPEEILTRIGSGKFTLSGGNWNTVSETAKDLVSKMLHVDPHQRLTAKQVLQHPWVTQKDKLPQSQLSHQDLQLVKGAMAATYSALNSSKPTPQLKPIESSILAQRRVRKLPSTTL

cKIT, sequence (P10721 26-976): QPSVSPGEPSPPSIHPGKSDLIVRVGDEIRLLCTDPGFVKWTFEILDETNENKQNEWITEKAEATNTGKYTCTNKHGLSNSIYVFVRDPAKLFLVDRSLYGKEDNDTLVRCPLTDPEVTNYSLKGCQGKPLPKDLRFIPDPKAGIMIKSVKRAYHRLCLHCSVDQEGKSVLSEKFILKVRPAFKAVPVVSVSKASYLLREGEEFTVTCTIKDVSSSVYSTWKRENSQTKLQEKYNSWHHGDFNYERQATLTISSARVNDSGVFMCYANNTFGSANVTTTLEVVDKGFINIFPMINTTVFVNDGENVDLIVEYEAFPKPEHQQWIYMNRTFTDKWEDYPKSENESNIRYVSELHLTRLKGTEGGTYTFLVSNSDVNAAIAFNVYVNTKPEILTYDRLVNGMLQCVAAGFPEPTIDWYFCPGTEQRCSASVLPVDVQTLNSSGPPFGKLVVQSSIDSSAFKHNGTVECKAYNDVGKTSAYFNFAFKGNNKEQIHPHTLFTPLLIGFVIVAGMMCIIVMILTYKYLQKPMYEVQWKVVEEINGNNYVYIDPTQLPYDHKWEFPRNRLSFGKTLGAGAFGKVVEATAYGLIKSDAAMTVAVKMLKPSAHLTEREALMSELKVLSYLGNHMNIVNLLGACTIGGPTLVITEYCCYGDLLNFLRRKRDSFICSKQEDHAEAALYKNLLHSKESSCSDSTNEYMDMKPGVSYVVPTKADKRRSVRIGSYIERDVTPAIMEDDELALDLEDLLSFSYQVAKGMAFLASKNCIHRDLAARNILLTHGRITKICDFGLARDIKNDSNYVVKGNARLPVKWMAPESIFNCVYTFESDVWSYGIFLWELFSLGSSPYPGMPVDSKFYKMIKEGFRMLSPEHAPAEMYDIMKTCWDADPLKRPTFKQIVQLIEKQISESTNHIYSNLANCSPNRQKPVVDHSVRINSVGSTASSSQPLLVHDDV
AKT1, sequence (P31749 whole entry, species assumed): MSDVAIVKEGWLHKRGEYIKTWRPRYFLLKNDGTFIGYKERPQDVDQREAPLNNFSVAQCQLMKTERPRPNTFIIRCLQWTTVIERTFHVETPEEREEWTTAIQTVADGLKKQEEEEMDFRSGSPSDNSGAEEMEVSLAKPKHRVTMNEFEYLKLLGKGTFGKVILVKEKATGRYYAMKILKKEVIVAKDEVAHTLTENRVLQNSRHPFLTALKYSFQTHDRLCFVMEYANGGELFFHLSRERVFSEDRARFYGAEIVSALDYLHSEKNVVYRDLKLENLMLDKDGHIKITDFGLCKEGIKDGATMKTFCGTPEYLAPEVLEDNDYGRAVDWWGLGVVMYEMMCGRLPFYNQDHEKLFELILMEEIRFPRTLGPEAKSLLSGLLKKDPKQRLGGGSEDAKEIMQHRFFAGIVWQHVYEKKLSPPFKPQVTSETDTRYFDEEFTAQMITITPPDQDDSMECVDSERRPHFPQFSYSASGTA
CaMKII (gamma), sequence (Q13555 whole entry, species assumed): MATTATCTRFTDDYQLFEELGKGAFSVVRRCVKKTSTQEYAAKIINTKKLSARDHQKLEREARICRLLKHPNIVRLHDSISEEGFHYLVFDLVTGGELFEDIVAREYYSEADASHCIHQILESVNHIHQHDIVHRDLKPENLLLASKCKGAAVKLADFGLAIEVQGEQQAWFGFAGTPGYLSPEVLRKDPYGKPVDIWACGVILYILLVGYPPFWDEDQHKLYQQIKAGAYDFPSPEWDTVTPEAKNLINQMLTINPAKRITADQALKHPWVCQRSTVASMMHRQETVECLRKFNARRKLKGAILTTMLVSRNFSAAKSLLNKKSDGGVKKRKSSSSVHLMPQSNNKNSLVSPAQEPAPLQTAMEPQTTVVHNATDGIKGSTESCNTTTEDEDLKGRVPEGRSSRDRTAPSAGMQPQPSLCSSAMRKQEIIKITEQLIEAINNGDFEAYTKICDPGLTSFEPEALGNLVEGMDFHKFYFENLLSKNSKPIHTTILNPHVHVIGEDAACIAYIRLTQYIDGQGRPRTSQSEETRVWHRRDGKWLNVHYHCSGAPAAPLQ
EGFR, sequence (P00533 25-1210, species assumed): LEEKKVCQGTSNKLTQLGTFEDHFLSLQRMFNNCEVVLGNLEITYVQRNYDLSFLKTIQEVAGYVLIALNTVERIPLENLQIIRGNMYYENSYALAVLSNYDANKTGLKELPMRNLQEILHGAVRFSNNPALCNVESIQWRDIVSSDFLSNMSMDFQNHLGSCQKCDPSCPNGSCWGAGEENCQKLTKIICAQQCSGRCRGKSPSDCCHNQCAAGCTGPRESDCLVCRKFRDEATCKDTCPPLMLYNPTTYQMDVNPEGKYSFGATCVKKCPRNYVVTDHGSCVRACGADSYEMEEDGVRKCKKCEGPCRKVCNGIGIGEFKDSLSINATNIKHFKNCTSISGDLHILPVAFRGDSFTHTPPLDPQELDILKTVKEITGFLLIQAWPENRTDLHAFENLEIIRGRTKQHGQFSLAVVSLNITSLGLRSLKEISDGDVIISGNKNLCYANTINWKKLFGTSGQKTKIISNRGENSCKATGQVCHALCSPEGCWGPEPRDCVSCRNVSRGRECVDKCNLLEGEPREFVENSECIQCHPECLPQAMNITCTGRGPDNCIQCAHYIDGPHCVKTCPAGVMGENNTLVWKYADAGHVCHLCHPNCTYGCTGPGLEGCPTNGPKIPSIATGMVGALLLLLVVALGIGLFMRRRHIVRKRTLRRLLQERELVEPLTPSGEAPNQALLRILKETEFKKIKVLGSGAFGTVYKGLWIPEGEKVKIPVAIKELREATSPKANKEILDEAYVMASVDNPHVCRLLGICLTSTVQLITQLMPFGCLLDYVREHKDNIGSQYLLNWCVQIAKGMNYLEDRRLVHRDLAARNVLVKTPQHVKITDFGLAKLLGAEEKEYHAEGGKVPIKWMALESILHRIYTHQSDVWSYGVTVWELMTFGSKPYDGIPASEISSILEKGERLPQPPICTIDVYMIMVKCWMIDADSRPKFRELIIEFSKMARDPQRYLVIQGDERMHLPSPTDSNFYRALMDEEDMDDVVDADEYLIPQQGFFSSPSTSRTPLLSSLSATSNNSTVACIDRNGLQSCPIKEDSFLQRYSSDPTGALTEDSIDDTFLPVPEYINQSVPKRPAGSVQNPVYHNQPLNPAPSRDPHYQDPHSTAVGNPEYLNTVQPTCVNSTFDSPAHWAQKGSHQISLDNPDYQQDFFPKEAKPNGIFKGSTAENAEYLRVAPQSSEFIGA
Fer, sequence (P16591 whole entry, species assumed): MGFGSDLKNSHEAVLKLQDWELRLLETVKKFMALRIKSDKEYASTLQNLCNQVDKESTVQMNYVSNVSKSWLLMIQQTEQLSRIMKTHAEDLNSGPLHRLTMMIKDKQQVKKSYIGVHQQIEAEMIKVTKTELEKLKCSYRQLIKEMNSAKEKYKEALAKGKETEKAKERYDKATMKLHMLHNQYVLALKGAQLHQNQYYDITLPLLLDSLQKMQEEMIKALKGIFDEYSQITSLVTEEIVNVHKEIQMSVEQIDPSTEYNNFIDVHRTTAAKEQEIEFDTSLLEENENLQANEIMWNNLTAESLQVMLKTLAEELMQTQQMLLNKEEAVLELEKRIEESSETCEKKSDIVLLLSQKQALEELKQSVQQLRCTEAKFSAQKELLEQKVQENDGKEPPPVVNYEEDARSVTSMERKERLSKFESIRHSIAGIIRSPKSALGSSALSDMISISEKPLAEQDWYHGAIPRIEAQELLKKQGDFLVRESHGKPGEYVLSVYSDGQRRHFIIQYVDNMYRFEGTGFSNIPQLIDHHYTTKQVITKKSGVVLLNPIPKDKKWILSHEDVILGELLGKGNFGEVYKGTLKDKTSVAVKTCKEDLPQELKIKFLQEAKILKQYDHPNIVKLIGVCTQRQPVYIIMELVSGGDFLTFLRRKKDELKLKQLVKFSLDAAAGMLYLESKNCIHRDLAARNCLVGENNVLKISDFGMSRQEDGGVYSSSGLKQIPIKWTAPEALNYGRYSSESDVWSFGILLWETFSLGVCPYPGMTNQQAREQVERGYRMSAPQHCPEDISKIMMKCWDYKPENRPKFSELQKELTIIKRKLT

By inhibition is commonly meant the relative decrease from the control value, in per cent. Consider `Cc1nc(Nc2ncc(C(=O)Nc3c(C)cccc3Cl)s2)cc(N2CCN(CCO)CC2)n1` [Dasatinib, reference compound], for which the inhibition at 0.01 µM against TSSK2 was -3%; against AKT1, -6%; against cKIT, 30%; at Fer it was -3%; against CaMKII (gamma), 5%; on TSSK1, -5%. In addition, the inhibition at 0.01 µM against CHK1 amounted to 3%. Also, the inhibition at 1 µM against AKT1 is -2%; against TSSK1, -6%.
Take `COCCOCCOCCNC(=O)OCCN1CCN(c2cc(Nc3ncc(C(=O)Nc4c(C)cccc4Cl)s3)nc(C)n2)CC1` [mPEG3-NHCOO-Dasatinib]: the inhibition at 0.01 µM on TSSK2 was -1%; against AKT1 it was 7%; against cKIT, 34%; on Fer, -4%; against CaMKII (gamma), 2%; on ABL (T315I) it was 1%. In addition, the inhibition at 0.01 µM was 6% at Flt3 (D835Y); -1% at TSSK1; 3% at EGFR; -2% against CHK1; 2% on RSK1. Besides, the inhibition at 1 µM was 0% at TSSK2; 0% on AKT1; 100% on cKIT; 5% on Fer; 2% against CaMKII (gamma); 36% on ABL (T315I). Moreover, the inhibition at 1 µM stood at 10% against Flt3 (D835Y); 0% on TSSK1; 76% on EGFR; 0% at CHK1; 0% at RSK1.
Consider `COCCOCCOCCOCCOCCOCCOCCNC(=O)OCCN1CCN(c2cc(Nc3ncc(C(=O)Nc4c(C)cccc4Cl)s3)nc(C)n2)CC1` [mPEG7-NHCOO-Dasatinib], for which the inhibition at 0.01 µM at TSSK2 is 3%; on AKT1, -1%; on cKIT, 34%; against Fer, -2%; on CaMKII (gamma), 6%; on ABL (T315I) (ABL (T315I), 10 nM), 4%. Further, the inhibition at 0.01 µM against Flt3 (D835Y) was 3%; against TSSK1, -3%; on EGFR, 6%; at CHK1 it was 10%; against RSK1, 0%. The inhibition at 1 µM on TSSK2 was -2%; against AKT1, 0%; at cKIT, 100%; against Fer, 5%; at CaMKII (gamma) it was 3%; on ABL (T315I) (ABL (T315I), 1 μM), 26%. Besides, the inhibition at 1 µM is 7% on Flt3 (D835Y); -5% against TSSK1; 62% on EGFR; 8% at CHK1; 4% against RSK1.
